According to patent US20130225412A1, “SILICON NANOCARRIER FOR DELIVERY OF DRUG, PESTICIDES AND HERBICIDES , AND FOR WASTE WATER TREATMENT” (priority 2012, published 2013):

Assay: Release from loaded diatomaceous earth measured by Nano Drop spectrophotometer
Type: physicochemical
Details: for start of release after loading / time of peak release: release pattern measured by NanoDrop
Protocol: According to embodiments herein, the diatom structure and drug loading capacity can vary for different kind of medicines. For example for anticancer Fluorouracil (5-FU or f5U) a master mix of 50 mg/ml was prepared. 0.8 ml of this master mix was added to 200 ml pure ethanol. 0.6 g diatomaceous earth (diatom cell wall) was added to this mixture and was left to be stirred for 3 hours with 200 rpm. Finally after filtration, diatom cell wall was washed once with methanol. 12 hours later at room temperature diatom cell wall were dried and loaded with Fluorouracil (5-FU or f5U).
Final concentration of 200 mg/ml of Gallic acid in Methanol/Diatomaceous Earth was prepared. To ensure that none of the Gallic acid was left on the outer surface of nano silicon, it washed by Methanol. After his, its release in water by interval of 2 hours was measured at the wavelength of 270 nm.
Evaluation of Benomyl fungicide release by nano Drop Spectrophotometer: Material and methods were identically same as Gallic Acid. After measuring all ODs, release calibration curve was drawn. […] With respect to FIG. 5, it is seen that the Benomyl releases after 12 hours of loading and gets to its peak release after 40 hours and the release decreases sharply. This is a kind of controlled release.
5-flouracil release pattern by nano Drop Spectrophotometer was evaluated. […] With respect to FIG. 6, it can be seen that the drug 5-Florouracil releases after 8 hours from the loading starts and 16 hours after gets peak release and then fall of gradually. This is a kind of controlled release.
Progesterone release pattern by nano Drop Spectrophotometer was evaluated.

SMILES	start of release after loading	time of peak release	release in water (loaded in Diatomaceous Earth, washed by Methanol)	optical density (ODs) measures (release in water, interval of 2 hours, wavelength 270 nm, loaded in Diatomaceous Earth)
O=c1[nH]cc(F)c(=O)[nH]1 [fluorouracil]	8 h	16 h		
CCCCNC(=O)n1c(NC(=O)OC)nc2ccccc21 [Benomyl]	12 h	40 h		
O=C(O)c1cc(O)c(O)c(O)c1 [Gallic acid]			none of the Gallic acid has been released in water	zero
CC(=O)[C@H]1CC[C@H]2[C@@H]3CCC4=CC(=O)CC[C@]4(C)[C@H]3CC[C@]12C [Progesterone]	4 h	28 h		
